Experimental data published in patent US20240199640A1, “NEGATIVE ALLOSTERIC MODULATORS OF METABOTROPIC GLUTAMATE RECEPTOR 2” (priority 2021, published 2024).
Values joined by “and” are separate entries in the source; they are usually repeats but may differ in a detail not shown here. Equal values may be shown once.

Target: T1, rat mGlu2 (Rattus norvegicus, UniProt P31421)
T1 construct: expressed in transfected cells; host or cells: HEK-293
Assay: mGlu GIRK cell-based thallium flux assay, rat mGlu2
Conditions: rat mGlu2 GIRK IC50 (nM), HEK-293 cells co-expressing rat mGlu2 and GIRK; EC80 glutamate; Tl flux
Procedure: The day before the assay, GIRK cells co-expressing human mGlu3, human or rat mGlu2, as described above, were plated in black-walled, clear-bottomed, amine-coated 384-well plates at a density of 15,000 cells/20 μL/well in the assay medium (glutamine-depleted basal DMEM supplemented with 10% dialyzed FBS, 20 mM HEPES, 1 mM sodium pyruvate). Cells were incubated at 37° C. in the presence of 5% CO2. […] Cells were washed with assay buffer using a microplate washer to remove the medium, resulting in 20 μL of buffer remaining in each well. Immediately, 20 μL of 2× Thallos dye solution was added to cells, and incubated for one hour at 25° C. During the cell dye loading incubation period, a 10-point concentration serial dilution of compound was created from a 10 mM DMSO compound stock by performing a 1:3 serial dilution in DMSO using the Bravo liquid handler. The 2× compound plate was generated by transferring 0.24 μL of the diluted compound in each well to a daughter plate using an Echo acoustic liquid handler.
After dye-loading, cell plates were washed with assay buffer to remove excess extracellular dye using a microplate washer, resulting in 20 μL of buffer remaining in each well. After a ten-minute equilibration period, cell, compound and agonist plates were loaded into a Hamamatsu μCell kinetic imaging plate reader equipped with liquid handler to monitor fluorescence changes at 480 nm excitation and 540 nm emission settings. Briefly, after collection of baseline fluorescence, 20 μL of compound was added and incubated for two minutes and twenty seconds. This is immediately followed by adding 10 μL of glutamate-thallium buffer to the wells containing compound. The fluorescent signal was monitored an additional 2.5 minutes after the glutamate addition. Multiple reference wells containing no compound received either no glutamate (for a baseline reference), […] glutamate, or ECmax glutamate (for normalization to maximum response). Fluorescence was measured throughout the experiment at a frequency of 1 measurement per every 2 seconds before the glutamate addition and a frequency of 1 measurement per every 1 second after the glutamate addition. Each compound concentration series occurred one time in each plate, and replicates from two or three plates were used in each experimental run. Thallium solutions were handled and disposed of according to guidelines from the Vanderbilt University Chemical Safety department.
Data were normalized using a static ratio function (F/F0) by dividing every fluorescent measurement by the initial fluorescent value for the corresponding well. The increase in signal resulting from the glutamate/thallium addition of the second add was measured by determining the slope from 3 seconds to 13 seconds after the addition. The average of all baseline slopes (no compound, no glutamate) was determined and this value was subtracted from all other slope values. The average of all ECmax slopes was determined and this value was used to normalize the baseline-corrected slopes to a percent max value (% Emax). The % Emax values for each compound series were plotted versus the log of the concentration and fit to a 4-parameter logistical equation with no fixed parameters.
Potency is reported as the IC50 resulting from the curve fit.

T1 sequence (P31421 19-872): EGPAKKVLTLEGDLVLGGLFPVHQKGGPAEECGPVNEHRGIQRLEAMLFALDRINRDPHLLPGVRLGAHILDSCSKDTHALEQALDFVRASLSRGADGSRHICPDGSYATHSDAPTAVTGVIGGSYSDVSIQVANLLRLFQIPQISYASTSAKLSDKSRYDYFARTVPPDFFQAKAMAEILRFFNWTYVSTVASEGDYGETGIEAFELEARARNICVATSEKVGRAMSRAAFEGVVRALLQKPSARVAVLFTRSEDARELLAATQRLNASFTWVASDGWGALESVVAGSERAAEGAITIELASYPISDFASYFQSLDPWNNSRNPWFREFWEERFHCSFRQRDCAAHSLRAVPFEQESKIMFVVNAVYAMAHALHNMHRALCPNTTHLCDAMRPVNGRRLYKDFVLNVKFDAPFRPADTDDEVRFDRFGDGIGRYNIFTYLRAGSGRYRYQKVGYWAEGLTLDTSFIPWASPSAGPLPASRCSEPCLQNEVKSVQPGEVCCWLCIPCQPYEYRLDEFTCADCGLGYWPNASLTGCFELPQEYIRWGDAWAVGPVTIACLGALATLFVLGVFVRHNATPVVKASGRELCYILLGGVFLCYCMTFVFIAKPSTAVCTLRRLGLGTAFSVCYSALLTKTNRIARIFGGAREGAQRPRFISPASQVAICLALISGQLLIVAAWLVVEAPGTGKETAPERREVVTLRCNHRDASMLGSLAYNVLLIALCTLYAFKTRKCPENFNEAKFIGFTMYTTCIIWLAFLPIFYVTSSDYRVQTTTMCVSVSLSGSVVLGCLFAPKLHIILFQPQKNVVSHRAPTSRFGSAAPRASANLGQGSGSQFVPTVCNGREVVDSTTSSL

Compound: Cc1ncc(COc2cc3c(cc2-c2ccc(F)cc2)C(=O)NC3)s1 [Compound 26, 6-(4-fluorophenyl)-5-((2-methylthiazol-5-yl)methoxy)isoindolin-1-one]
- IC50: 92 nM

Compound: CC(Oc1cc2c(cc1-c1ccc(F)cc1)C(=O)NC2)c1ccncc1 (stereo not shown) [Compound 27, 6-(4-fluorophenyl)-5-(1-(pyridin-4-yl)ethoxy)isoindolin-1-one]
- IC50: 321 nM

Compound: CC(Oc1cc2c(cc1-c1ccc(F)cc1F)C(=O)NC2)c1ccncc1 (stereo not shown) [Compound 28, 6-(2,4-difluorophenyl)-5-(1-(pyridin-4-yl)ethoxy)isoindolin-1-one]
- IC50: 305 nM

Compound: Cc1csc(C(C)Oc2cc3c(cc2-c2ccc(F)cc2)C(=O)NC3)n1 (stereo not shown) [Compound 29, 6-(4-fluorophenyl)-5-(1-(4-methylthiazol-2-yl)ethoxy)isoindolin-1-one]
- IC50: 1690 nM

Compound: [2H]C([2H])(Oc1cc2c(cc1-c1ccc(F)cc1)C(=O)NC2)c1cnn(C)c1 [Compound 30, 6-(4-fluorophenyl)-5-((1-methyl-1H-pyrazol-4-yl)methoxy-d2)isoindolin-1-one]
- IC50: 418 nM

Compound: O=C1NCc2cc(Oc3ccncc3)c(-c3ccc(F)cc3)cc21 [Compound 31, 6-(4-fluorophenyl)-5-(pyridin-4-yloxy)isoindolin-1-one]
- IC50: 1160 nM

Compound: O=C1NCc2cc(Oc3ccncc3)c(-c3ccc(F)cc3F)cc21 [Compound 32, 6-(2,4-difluorophenyl)-5-(pyridin-4-yloxy)isoindolin-1-one]
- IC50: 151 nM

Compound: O=C1NCc2cc(OC3CN(c4ccncc4)C3)c(-c3ccc(F)cc3)cc21 [Compound 33, 6-(4-fluorophenyl)-5-((1-(pyridin-4-yl)azetidin-3-yl)oxy)isoindolin-1-one]
- IC50: > 10000 nM

Compound: [2H]C1([2H])NC(=O)c2cc(-c3ccc(F)cc3)c(OC([2H])([2H])c3cnn(C)c3)cc21 [Compound 34, 6-(4-fluorophenyl)-5-((1-methyl-1H-pyrazol-4-yl)methoxy-d2)isoindolin-1-one-3,3-d2]
- IC50: 836 nM

Compound: CC(Oc1cc2c(cc1-c1ccc(-c3cccs3)cc1)C(=O)NC2)c1ccncc1 (stereo not shown) [Compound 36, 5-(1-(pyridin-4-yl)ethoxy)-6-(4-(thiophen-2-yl)phenyl)isoindolin-1-one]
- IC50: > 30000 nM

Compound: CC(Oc1cc2c(cc1-c1ccc(OC(F)F)cc1F)C(=O)NC2)c1ccncc1 (stereo not shown) [Compound 37, 6-(4-(difluoromethoxy)-2-fluorophenyl)-5-(1-(pyridin-4-yl)ethoxy)isoindolin-1-one]
- IC50: 781 nM

Compound: CC(Oc1cc2c(cc1-c1ccc(N3CCOCC3)cc1)C(=O)NC2)c1ccncc1 (stereo not shown) [Compound 38, 6-(4-morpholinophenyl)-5-(1-(pyridin-4-yl)ethoxy)isoindolin-1-one]
- IC50: > 10000 nM

Compound: CC(Oc1cc2c(cc1-c1ccc(OC(F)(F)F)cc1)C(=O)NC2)c1ccncc1 (stereo not shown) [Compound 39, 5-(1-(pyridin-4-yl)ethoxy)-6-(4-(trifluoromethoxy)phenyl)isoindolin-1-one]
- IC50: > 10000 nM

Compound: CC(Oc1cc2c(cc1-c1ccc(F)nc1)C(=O)NC2)c1ccncc1 (stereo not shown) [Compound 40, 6-(6-fluoropyridin-3-yl)-5-(1-(pyridin-4-yl)ethoxy)isoindolin-1-one]
- IC50: > 10000 nM

Compound: Cn1ccc(COc2cc3c(cc2-c2cc(F)nc(F)c2)C(=O)NC3)n1 [Compound 41, 6-(2,6-difluoropyridin-4-yl)-5-((1-methyl-1H-pyrazol-3-yl)methoxy)isoindolin-1-one]
- IC50: > 10000 nM

Compound: Cn1ccc(COc2cc3c(cc2-c2ccc(OC(F)F)cc2F)C(=O)NC3)n1 [Compound 42, 6-(4-(difluoromethoxy)-2-fluorophenyl)-5-((1-methyl-1H-pyrazol-3-yl)methoxy)isoindolin-1-one]
- IC50: 393 nM

Compound: Cn1ccc(COc2cc3c(cc2-c2ccc(OC(F)(F)F)cc2)C(=O)NC3)n1 [Compound 43, 5-((1-methyl-1H-pyrazol-3-yl)methoxy)-6-(4-(trifluoromethoxy)phenyl)isoindolin-1-one]
- IC50: 2370 nM

Compound: Cn1ccc(COc2cc3c(cc2-c2ccc(F)nc2)C(=O)NC3)n1 [Compound 44, 6-(6-fluoropyridin-3-yl)-5-((1-methyl-1H-pyrazol-3-yl)methoxy)isoindolin-1-one]
- IC50: 1840 nM

Compound: Cc1nn(C)cc1-c1cc2c(cc1OCc1ccn(C)n1)CNC2=O [Compound 45, 6-(1,3-dimethyl-1H-pyrazol-4-yl)-5-((1-methyl-1H-pyrazol-3-yl)methoxy)isoindolin-1-one]
- IC50: 3820 nM

Compound: Cn1cc(-c2cc3c(cc2OCc2ccn(C)n2)CNC3=O)cn1 [Compound 46, 5-((1-methyl-1H-pyrazol-3-yl)methoxy)-6-(1-methyl-1H-pyrazol-4-yl)isoindolin-1-one]
- IC50: > 10000 nM

Compound: Cn1ccc(-c2cc3c(cc2OCc2ccn(C)n2)CNC3=O)c1 [Compound 47, 5-((1-methyl-1H-pyrazol-3-yl)methoxy)-6-(1-methyl-1H-pyrrol-3-yl)isoindolin-1-one]
- IC50: > 10000 nM

Compound: Cc1cc(-c2cc3c(cc2OCc2ccn(C)n2)CNC3=O)n(C)n1 [Compound 48, 6-(1,3-dimethyl-1H-pyrazol-5-yl)-5-((1-methyl-1H-pyrazol-3-yl)methoxy)isoindolin-1-one]
- IC50: > 10000 nM

Compound: Cc1c(-c2cc3c(cc2OCc2ccn(C)n2)CNC3=O)cc(C#N)n1C [Compound 49, 1,5-dimethyl-4-(6-((1-methyl-1H-pyrazol-3-yl)methoxy)-3-oxoisoindolin-5-yl)-1H-pyrrole-2-carbonitrile]
- IC50: > 10000 nM

Compound: Cn1ccc(COc2cc3c(cc2-c2cnn(C(F)F)c2)C(=O)NC3)n1 [Compound 50, 6-(1-(difluoromethyl)-1H-pyrazol-4-yl)-5-((1-methyl-1H-pyrazol-3-yl)methoxy)isoindolin-1-one]
- IC50: 2360 nM

Compound: Cn1ccc(COc2cc3c(cc2-c2ccc4c(c2)CCO4)C(=O)NC3)n1 [Compound 51, 6-(2,3-dihydrobenzofuran-5-yl)-5-((1-methyl-1H-pyrazol-3-yl)methoxy)isoindolin-1-one]
- IC50: 965 nM

Compound: Cn1ccc(COc2cc3c(cc2-c2ccc4ncsc4c2)C(=O)NC3)n1 [Compound 52, 6-(benzo[d]thiazol-6-yl)-5-((1-methyl-1H-pyrazol-3-yl)methoxy)isoindolin-1-one]
- IC50: 675 nM

Compound: Cn1ccc(COc2cc3c(cc2-c2ccc4c(c2)OCO4)C(=O)NC3)n1 [Compound 55, 6-(benzo[d][1,3]dioxol-5-yl)-5-((1-methyl-1H-pyrazol-3-yl)methoxy)isoindolin-1-one]
- IC50: 1190 nM and 362 nM

Compound: Cn1ccc(COc2cc3c(cc2-c2ccc4c(c2)OCCO4)C(=O)NC3)n1 [Compound 56, 6-(2,3-dihydrobenzo[b][1,4]dioxin-6-yl)-5-((1-methyl-1H-pyrazol-3-yl)methoxy)isoindolin-1-one]
- IC50: 2930 nM and 7540 nM

Compound: [2H]C([2H])(Oc1cc2c(cc1-c1cc(F)cc(C#N)c1)C(=O)NC2)c1ccc(C)nc1 [Compound 59, 3-fluoro-5-(6-((6-methylpyridin-3-yl)methoxy-d2)-3-oxoisoindolin-5-yl)benzonitrile]
- IC50: > 10000 nM

Compound: Cn1cc(OCc2cc3c(cc2-c2ccc(F)cc2)C(=O)NC3)cn1 [Compound 63, 6-(4-fluorophenyl)-5-(((1-methyl-1H-pyrazol-4-yl)oxy)methyl)isoindolin-1-one]
- IC50: 1190 nM and 1570 nM

Compound: Cn1ccc(OCc2cc3c(cc2-c2ccc(F)cc2)C(=O)NC3)n1 [Compound 64, 6-(4-fluorophenyl)-5-(((1-methyl-1H-pyrazol-3-yl)oxy)methyl)isoindolin-1-one]
- IC50: 2930 nM and 582 nM

Compound: O=C1NCc2cc(OC3CN(C(=O)c4cccc(C(F)(F)F)c4)C3)c(-c3ccc(F)cc3)cc21 [Compound 66, 6-(4-fluorophenyl)-5-((1-(3-(trifluoromethyl)benzoyl)azetidin-3-yl)oxy)isoindolin-1-one]
- IC50: 7540 nM and > 30000 nM

Compound: O=C1NCc2cc(OC3CN(C(=O)c4cccs4)C3)c(-c3ccc(F)cc3)cc21 [Compound 67, 6-(4-fluorophenyl)-5-((1-(thiophene-2-carbonyl)azetidin-3-yl)oxy)isoindolin-1-one]
- IC50: > 10000 nM

Compound: O=C1NCc2cc(OC3CN(C(=O)c4ccno4)C3)c(-c3ccc(F)cc3)cc21 [Compound 69, 6-(4-fluorophenyl)-5-((1-(isoxazole-5-carbonyl)azetidin-3-yl)oxy)isoindolin-1-one]
- IC50: > 10000 nM
